In patent publication US20240368104A1, “Novel Dialkoxynaphtho[2,3-C]Furan-1(3H)-One Derivatives and Pharmaceutical Composition For Preventing or Treating Respiratory Disease or SARS-COV-2 Infection Disease, Comprising Same” (priority 2021, published 2024):

Key:
[1] = in vitro; conditions: African green monkey
[2] = test system: IL-5 expression in Th2 cells; assay: Inhibition of IL-5 expression in Th2 cells (ELISA); assay type: cell-based, Balb/C mice; conditions: Splenocyte; Th2 cells from mouse splenocytes, compound 1 nM; read-out: Inhibitory ability against IL-5 expression (%)
Procedure: Specifically, after spleens were collected from Balb/C mice, CD4+ T cells were isolated therefrom and were seeded at 1-2×10^6 per well into a 48-well tissue culture plate coated with anti-CD3 (5 ug/ml) and anti-CD28 (1 ug/ml). At this time, the culture medium was incubated with IL-2 (20 ng/ml), IL-4 (100 ng/ml), anti-IFNγ (10 ug/ml), anti-IL12 (10 ug/ml), and a derivative of 1 nM for two days, transferred to a new tissue culture plate, and further cultured for three days to induce differentiation into Th2 cells. After replacing with a new medium containing anti-IFNγ (10 ug/ml), anti-IL12 (10 ug/ml) and a derivative of 1 nM, polarization of Th2 cells was induced using PMA and A23187. After two days of culture, the cells were centrifuged and the culture medium was taken to perform IL-5 ELISA. IL-5 ELISA was performed according to the test method of the kit manufacturer.

[3] = test system: SARS-COV-2; assay: microbe, parasite or virus in culture; assay type: cell-based; design: SI (Selectivity Index, CC50/IC50): unit not given here; conditions: for SI (Selectivity Index, CC50/IC50): SARS-COV-2, values >50 assumed to be 50; for IC50: Severe acute respiratory syndrome coronavirus 2, Vero cells, 24 hours infection, read-out: SARS-COV-2 inhibition (IC50)

Row | Compound | CC50 [1] | inhibition at 0.001 µM [2] | SI (Selectivity Index, CC50/IC50) [3] | IC50 [3]
1 | COc1cc2cc3c(c(-c4ccc5nccnc5c4)c2cc1OC)C(=O)OC3 [Example 40, 6,7-dimethoxy-9-(quinoxalin-6-yl)naphtho[2,3-c]furan-1(3H)-one] | > 50 µM | 65.1% | 76.71 | 0.65 µM
2 | COc1cc2cc3c(c(-c4cnc(Oc5ccc6c(c5)OCO6)nc4)c2cc1OC)C(=O)OC3 [Example 20, 9-(2-(benzo[d][1,3]dioxol-5-yloxy)pyrimidin-5-yl)-6,7-dimethoxynaphtho[2,3-c]furan-1(3H)-one] | > 50 µM | 40.8% | 1.00 | > 50 µM
3 | COc1cc2cc3c(c(-c4cnc(NCc5ccc(C)o5)nc4)c2cc1OC)C(=O)OC3 [Example 50, 6,7-dimethoxy-9-(2-(((5-methylfuran-2-yl)methyl)amino)pyrimidin-5-yl)naphtho[2,3-c]furan-1(3H)-one] | > 50 µM | 61.5% | 5.27 | 9.49 µM
4 | CCOC(=O)CNc1ncc(-c2c3c(cc4cc(OC)c(OC)cc24)COC3=O)cn1 [Example 44, Ethyl (5-(6,7-dimethoxy-3-oxo-1,3-dihydronaphtho[2,3-c]furan-4-yl)pyrimidin-2-yl)glycinate] |  | 58.3% |  | 
5 | CCCOCCNc1ncc(-c2c3c(cc4cc(OC)c(OC)cc24)COC3=O)cn1 [Example 37, 6,7-dimethoxy-9-(2-((2-propoxyethyl)amino)pyrimidin-5-yl)naphtho[2,3-c]furan-1(3H)-one] | > 50 µM | 56% | 1.00 | > 50 µM
6 | COc1cc2cc3c(c(-c4cnc(OCCN5CCOCC5)nc4)c2cc1OC)C(=O)OC3 [Example 13, 6,7-dimethoxy-9-(2-(2-morpholinoethoxy)pyrimidin-5-yl)naphtho[2,3-c]furan-1(3H)-one] | > 50 µM | 67.7% | 1.00 | > 50 µM
7 | COc1cc2cc3c(c(-c4cnc5ccccc5c4)c2cc1OC)C(=O)OC3 [Example 46, 6,7-dimethoxy-9-(quinolin-3-yl)naphtho[2,3-c]furan-1(3H)-one] | > 50 µM | 50.4% | 512.00 | 0.1 µM
8 | COc1cc2cc3c(c(-c4cnc(N5CCC[C@H]5C(=O)N[C@@H](C)c5ccc(F)cc5)nc4)c2cc1OC)C(=O)OC3 [Example 39, (S)-1-(5-(6,7-dimethoxy-3-oxo-1,3-dihydronaphtho[2,3-c]furan-4-yl)pyrimidin-2-yl)-N—((S)-1-(4-fluorophenyl)ethyl)pyrrolidin-2-carboxamide] | > 50 µM | 47.7% | 1.98 | 13.6 µM
9 | CCOC(=O)C1CCCN(c2ncc(-c3c4c(cc5cc(OC)c(OC)cc35)COC4=O)cn2)C1 (centres unmarked) [Example 15, Ethyl 1-(5-(6,7-dimethoxy-3-oxo-1,3-dihydronaphtho[2,3-c]furan-4-yl)pyrimidin-2-yl) piperidin-3-carboxylate] | > 50 µM | 82.9% | 11.37 | 4.4 µM
10 | COc1cc2cc3c(c(-c4cnc(N[C@H]5CC[C@H](O)CC5)nc4)c2cc1OC)C(=O)OC3 [Example 47, 9-(2-(((1r,4r)-4-hydroxycyclohexyl)amino)pyrimidin-5-yl)-6,7-dimethoxynaptho[2,3-c]furan-1(3H)-one] | > 50 µM | 61% | 1.00 | > 50 µM
11 | COc1cc2cc3c(c(-c4cnc(N[C@H]5CCc6c(cccc6OC)C5)nc4)c2cc1OC)C(=O)OC3 [Example 22, (S)-6,7-dimethoxy-9-(2-((5-methoxy-1,2,3,4-tetrahydronaphthalen-2-yl)amino)pyrimidin-5-yl)naphtho[2,3-c]furan-1(3H)-one] | > 50 µM | 59.9% | 10.64 | 4.7 µM
12 | COc1cc2cc3c(c(-c4ccc5oc6ccccc6c5c4)c2cc1OC)C(=O)OC3 [Example 43, 9-(dibenzo[b,d]furan-2-yl)-6,7-dimethoxynaphtho[2,3-c]furan-1(3H)-one] | > 50 µM | 65.9% | 1.00 | > 50 µM
13 | COc1cc2cc3c(c(-c4cnc(N(C)C(C)C)nc4)c2cc1OC)C(=O)OC3 [Example 23, 9-(2-(isopropyl(methyl)amino)pyrimidin-5-yl)-6,7-dimethoxynaphtho[2,3-c]furan-1(3H)-one] | > 50 µM | 68.2% | 61.34 | 0.08 µM
14 | CCOC(=O)CNC(=O)[C@@H]1CCCN1c1ncc(-c2c3c(cc4cc(OC)c(OC)cc24)COC3=O)cn1 [Example 45, Ethyl (5-(6,7-dimethoxy-3-oxo-1,3-dihydronaphtho[2,3-c]furan-4-yl)pyrimidin-2-yl)-L-proglycinate] |  | 64.2% |  | 
15 | COc1cc2cc3c(c(N[C@H]4CCc5c(cccc5OC)C4)c2cc1OC)C(=O)OC3 [Example 1, (S)-6,7-dimethoxy-9-((5-methoxy-1,2,3,4-tetrahydronaphthalen-2-yl)amino)naphtho[2,3-c]furan-1(3H)-one] | > 50 µM | 61.9% | 1.00 | > 50 µM
16 | CCCOCCN(CCC)c1ncc(-c2c3c(cc4cc(OC)c(OC)cc24)COC3=O)cn1 [Example 42, 6,7-dimethoxy-9-(2-((2-propoxyethyl)(propyl)amino)pyrimidin-5-yl)naphtho[2,3-c]furan-1(3H)-one] | > 50 µM | 64.8% | 1.00 | > 50 µM
17 | CCCCCCOCCN(CCCCCC)c1ncc(-c2c3c(cc4cc(OC)c(OC)cc24)COC3=O)cn1 [Example 48, 9-(2-(hexyl(2-(hexyloxy)ethyl)amino)pyrimidin-5-yl)-6,7-dimethoxynaphtho[2,3-c]furan-1(3H)-one] | > 50 µM | 58.1% | 2.55 | 19.6 µM
18 | COc1cc2cc3c(c(-c4cnc(N5CCC[C@H]5C(=O)N5C[C@@H](C)O[C@@H](C)C5)nc4)c2cc1OC)C(=O)OC3 [Example 24, 9-(2-((S)-2-((2S,6R)-2,6-dimethylmorpholin-4-carbonyl)pyrrolidin-1-yl)pyrimidin-5-yl)-6,7-dimethoxynaphtho[2,3-c]furan-1(3H)-one] | > 50 µM | 72.3% | 1.00 | > 50 µM
19 | COc1cc2cc3c(c(-c4cnc(N5CCC[C@H]5C(=O)NCc5ccc(C)o5)nc4)c2cc1OC)C(=O)OC3 [Example 41, (S)-1-(5-(6,7-dimethoxy-3-oxo-1,3-dihydronaphtho[2,3-c]furan-4-yl)pyrimidin-2-yl)-N-((5-methylfuran-2-yl)methyl)pyrrolidin-2-carboxamide] | > 50 µM | 66% | 2.41 | 15.2 µM
20 | COC(=O)[C@@H](C)NC(=O)[C@@H]1CCCN1c1ncc(-c2c3c(cc4cc(OC)c(OC)cc24)COC3=O)cn1 [Example 38, Methyl (5-(6,7-dimethoxy-3-oxo-1,3-dihydronaphtho[2,3-c]furan-4-yl)pyrimidin-2-yl)-L-prolyl-D-alaninate] |  | 62.8% |  | 
